Data as given in BindingDB's records for doi:10.1021/jm1011319 (AstraZeneca, 2011).

Columns and labels:
[1] = target: T1, Signal transducer and activator of transcription 3 (Homo sapiens, UniProt P40763); experiment: Inhibition of Stat3 phosphorylation in human SET2 cells after 1 hr by Western blotting
[2] = target: T2, Signal transducer and activator of transcription 5A (Homo sapiens, UniProt P42229); experiment: Inhibition of Stat5 phosphorylation in human SET2 cells after 1 hr by Western blotting
T2 sequence (P42229 whole entry): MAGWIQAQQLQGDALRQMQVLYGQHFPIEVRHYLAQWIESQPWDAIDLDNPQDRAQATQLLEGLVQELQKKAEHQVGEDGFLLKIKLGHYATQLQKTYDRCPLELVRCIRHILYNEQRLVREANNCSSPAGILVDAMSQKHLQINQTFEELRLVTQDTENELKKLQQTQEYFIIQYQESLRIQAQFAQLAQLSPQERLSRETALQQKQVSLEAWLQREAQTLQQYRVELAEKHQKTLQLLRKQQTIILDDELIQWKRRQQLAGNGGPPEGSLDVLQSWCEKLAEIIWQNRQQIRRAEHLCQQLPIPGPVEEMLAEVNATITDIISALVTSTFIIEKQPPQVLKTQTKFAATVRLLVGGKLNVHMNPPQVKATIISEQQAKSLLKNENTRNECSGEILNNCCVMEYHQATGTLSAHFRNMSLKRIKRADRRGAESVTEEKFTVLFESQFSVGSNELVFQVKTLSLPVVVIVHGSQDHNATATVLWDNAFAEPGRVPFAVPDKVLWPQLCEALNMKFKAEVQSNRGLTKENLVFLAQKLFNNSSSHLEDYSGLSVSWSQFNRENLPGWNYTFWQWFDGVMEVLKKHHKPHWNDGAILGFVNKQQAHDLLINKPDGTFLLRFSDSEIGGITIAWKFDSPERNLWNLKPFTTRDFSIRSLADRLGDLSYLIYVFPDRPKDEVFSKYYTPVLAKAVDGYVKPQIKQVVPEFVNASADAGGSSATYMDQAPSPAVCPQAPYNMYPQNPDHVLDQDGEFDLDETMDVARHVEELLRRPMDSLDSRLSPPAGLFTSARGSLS

[3] = target: T2, Signal transducer and activator of transcription 5A; experiment: Inhibition of Stat5 phosphorylation in human HEL cells after 1 hr by Western blotting
[4] = target: T1, Signal transducer and activator of transcription 3; experiment: Inhibition of Stat3 phosphorylation in human HEL cells after 1 hr by Western blotting

T1 sequence (P40763 whole entry): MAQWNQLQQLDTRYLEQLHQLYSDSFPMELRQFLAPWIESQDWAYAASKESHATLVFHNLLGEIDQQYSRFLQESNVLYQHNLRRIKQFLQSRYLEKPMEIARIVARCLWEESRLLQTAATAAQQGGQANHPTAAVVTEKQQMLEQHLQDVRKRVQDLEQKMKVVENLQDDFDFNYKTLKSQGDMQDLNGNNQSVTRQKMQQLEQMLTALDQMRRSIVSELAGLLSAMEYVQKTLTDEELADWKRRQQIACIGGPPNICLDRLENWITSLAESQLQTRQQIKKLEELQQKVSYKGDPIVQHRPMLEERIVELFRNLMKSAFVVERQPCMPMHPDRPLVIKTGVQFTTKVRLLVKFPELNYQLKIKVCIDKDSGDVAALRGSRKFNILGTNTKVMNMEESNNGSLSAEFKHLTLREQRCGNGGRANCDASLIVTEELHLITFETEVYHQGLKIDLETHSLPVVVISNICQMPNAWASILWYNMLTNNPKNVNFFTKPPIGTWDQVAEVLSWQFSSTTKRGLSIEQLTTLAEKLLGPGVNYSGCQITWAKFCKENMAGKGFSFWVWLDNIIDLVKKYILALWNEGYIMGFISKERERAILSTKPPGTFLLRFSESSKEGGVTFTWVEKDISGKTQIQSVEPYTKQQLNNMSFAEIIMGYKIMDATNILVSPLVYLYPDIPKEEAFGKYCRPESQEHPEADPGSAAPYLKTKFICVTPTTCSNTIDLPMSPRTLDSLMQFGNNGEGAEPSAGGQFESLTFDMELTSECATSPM

`Cc1cc(Nc2nc(N[C@@H](C)c3ncc(F)cn3)ncc2Cl)[nH]n1` [5-Chloro-N2-[(1S)-1-(5-fluoropyrimidin-2-yl)ethyl]-N4-(5-methyl-1H-pyrazol-3-yl)pyrimidine-2,4-diamine] showed an IC50 [1] of 23 nM, an IC50 [2] of 25 nM and an IC50 [3] of 41 nM. For the same molecule, the IC50 [4] was 80 nM.
